{
  "source": "patent US20230181027A1",
  "about": "“METHODS AND MATERIALS FOR TREATING NEUROMYELITIS OPTICA SPECTRUM DISEASES” (Mayo Foundation for Medical Education and Research, priority 2019, published 2023)",
  "key": {"murine model of NMO": {"tested_on": "murine model of NMO", "experiment": "Rotarod test (latency to fall) in murine model of NMO with intrathecal NMO-IgG infusion", "type": "in vivo, mice", "from_the_text": "To investigate the cellular and molecular mechanisms underlying NMO pathology, a murine model was developed that utilizes IgG purified from NMO patient serum (NMO-IgG) or monoclonal AQP4-specific IgG. IgG collected from healthy individuals, or from healthy control subjects (control-IgG), or a control monoclonal IgG of irrelevant specificity was used in each experiment. NMO-IgG and control-IgG was purified by protein G adsorption (FIG. 1). An osmotic mini-pump delivery system loaded with either NMO-IgG, AQP4-IgG or control-IgG was placed subcutaneously and IgG was infused continuously into the spinal subarachnoid space via intrathecal catheter for 5 to 7 days (FIG. 2A). […] Gait analysis was also performed using ink tracking as described elsewhere (see, e.g., Zhang et al., J. Autoimmun. 53:67-77 (2014)). […] After 5 days of either […], 3 µg/µL, or 1 µg/µL NMO-IgG treatment, stride lengths decreased from an average of 5.7 cm to 2.6, 3.8, and 5.0 cm respectively (FIGS. 2C and 2D).\nA 3.5 cm polyurethane-silicone catheter (Alzet, CA) was inserted at the condylar canal to accesses the subarachnoid space at the cisterna magna and extended to lumbar level of spinal cord. Five days later an osmotic mini-pump delivery system, containing either NMO-IgG or control-IgG, was placed subcutaneously over the right shoulder. IgG was delivered continuously for 5-7 days (1-10 µg/day) (FIG. 2A).\nThe rotarod tests were performed using a five-lane Rotarod apparatus (Med Assocaites Inc). The rotarod speed started from 4 rounds per minute and uniformly accelerated to 40 rounds per minute over 5 minutes. Each mouse was tested for 3 times with 15 minute intervals. For gait analysis, mouse fore and hind limbs were covered by different color ink and allowed to walk freely across a narrow strip of paper. Stride length of hind limbs was reported as the mean of 5 sequential steps.\nMinocycline hydrochloride was dissolved in PBS with 1% DMSO at 30 µg/µL and mixed with 20 µg/µL NMO-IgG to make a mixture of 15 µg/µL minocycline and 10 µg/µL NMO-IgG. […]"}, "microglia [1]": {"tested_on": "microglia", "experiment": "Iba1 immunostaining of spinal cord microglia (activation or depletion)", "type": "in vivo, mice", "from_the_text": "To examine microglial activation in our murine model of NMO, genetic labeling of microglia (CX3CR1^GFP/+) and immunostaining for the microglial marker Iba1 were used. […] In addition, NMO-IgG induced striking morphological transition of microglia, from “resting” ramified to “activated” bushy phenotype in time-dependent manner (FIG. 4C).\nMicroglial activation after NMO-IgG infusion indicates a potential role for microglia in NMO pathogenesis. To test this idea, microglia ablation approaches were utilized to directly examine the requirement of microglia in NMO-induced motor deficits. […].\nTM (Sigma) was administered as a solution in corn oil (Sigma) to mice over 4 weeks of age via i.p. injection. Animals received four doses of TM (150 mg kg^-1, 20 mg mL^-1 in corn oil) in 48 hour intervals. […] Mice administered with DT only (without TM) were used as control for all ablation experiments.\nMice were deeply anaesthetized with isoflurane (5% in O2) and perfused transcardially with 20 mL PBS followed by 20 mL of cold 4% paraformaldehyde (PFA) in PBS. The spinal cord was removed and post-fixed with 4% PFA for 6 hours at 4° C. Samples were then transferred to 30% sucrose in PBS overnight. […] Cell counting and fluorescent signal intensity was quantified using ImageJ software (National Institutes of Health, Bethesda, MD).\nQuantification of Iba1 cells was done with ImageJ software (NIH Image). […]"}, "[2]": {"tested_on": "microglia-astrocyte interaction", "experiment": "Microglia-astrocyte interaction (Iba1/GFAP or CX3CR1-GFP/GFAP overlap) in L4 spinal cord", "type": "in vivo, mice", "details": "intrathecal, 150 µg/day, with NMO-IgG infusion", "from_the_text": "However, the question remains as to what cellular and molecular mechanisms underlie microglial function in NMO. […] Under control conditions, GFAP^+ astrocytes rarely overlap with Iba1^+ microglia. However, spatial overlapping was abundant after NMO-IgG exposure. […] Specifically, on average only 17% of microglia interact with astrocytes under control conditions while 65% of microglia overlap with astrocytes after NMO-IgG infusion.\n(§1) Mice were deeply anaesthetized with isoflurane (5% in O2) and perfused transcardially with 20 mL PBS followed by 20 mL of cold 4% paraformaldehyde (PFA) in PBS. The spinal cord was removed and post-fixed with 4% PFA for 6 hours at 4° C. Samples were then transferred to 30% sucrose in PBS overnight. Sample sections ([…] in thickness) were prepared on gelatin-coated glass slide with a cryostat (Leica). […] Cell counting and fluorescent signal intensity was quantified using ImageJ software (National Institutes of Health, Bethesda, MD)."}, "astrocyte complement C3": {"tested_on": "astrocyte complement C3", "experiment": "Complement C3 and GFAP double staining of astrocytes in L4 spinal cord", "type": "in vivo, mice", "details": "minocycline co-infusion with NMO-IgG", "from_the_text": "Astrocytes exposed in culture to NMO-IgG increase their production and secretion of all complement components, except C1q, which is made by activated microglia (see, Howe et al., Glia 62:692-708 (2014)). […] In contrast, C3 expression was principally restricted to the lumen of blood vessels following control-IgG exposure. The percentage of C3^+ astrocytes in spinal cord of mice receiving NMO-IgG was ~5-fold higher than that of control-IgG recipients (FIG. 10A). C3 upregulation in astrocytes is independent of microglia, as a similar C3 increase was found after microglia ablation (FIG. 11).\nas §1"}, "microglia [3]": {"tested_on": "microglia", "experiment": "In situ microglial process chemoattraction assay (C3a-containing pipettes)", "type": "cell-based, mice", "description": "The cleavage of the complement component C3 produces two signaling molecules, C3a and C3b.\nHippocampal tissue slices ([…] thick) were prepared from P14-21 mice and incubated in imaging media. Microglia were visualized by GFP. For each image in the time-series, 15 z-steps spaced […] apart were collected per image ([…] total depth). Images were taken at 5 minute intervals for up to 1 hour on Scientifica 2-photon microscope with an X20 lens. Image processing and analysis was performed using NIH Image J software."}},
  "data": [
    {"molecule": "FC(F)(F)c1ccc(CNc2ccc(Cc3c[nH]c4ncc(Cl)cc34)cn2)cn1", "note": "[PLX3397, Pexidartinib]", "values": [
      {"measurement": "motor function after NMO-IgG infusion (rotarod) versus control chow-treated group", "setting": "murine model of NMO; PLX3397 chow started 7 days before NMO-IgG infusion", "value": "significantly better"},
      {"measurement": "depletion of microglia in the L4 spinal cord (Iba1+ cell density)", "setting": "microglia [1]; PLX3397 chow, day 5 after NMO-IgG infusion, versus control chow", "value": "eliminated most of the microglia"}
    ]},
    {"molecule": "diphtheria toxin", "values": [
      {"measurement": "depletion of spinal microglia", "setting": "microglia [1]; CX3CR1CreER/+:R26iDTR/+ mice after tamoxifen, 1 to 3 days after DT 50 µg/Kg i.p.", "value": "mostly depleted"}
    ]},
    {"molecule": "CN(C)c1ccc(O)c2c1C[C@H]1C[C@H]3[C@H](N(C)C)C(O)=C(C(N)=O)C(=O)[C@@]3(O)C(O)=C1C2=O", "note": "[minocycline]", "values": [
      {"measurement": "effect on NMO-IgG induced motor dysfunction in rotarod test", "setting": "murine model of NMO; intrathecal, 150 µg/day, co-infused with NMO-IgG", "value": "prevented the NMO-IgG induced motor dysfunction"},
      {"measurement": "effect on motor impairment when given after onset", "setting": "murine model of NMO; systemic injection after 2 days of NMO-IgG infusion", "value": "reversed the motor impairment"},
      {"measurement": "effect on microglia-astrocyte interaction", "setting": "[2]", "value": "reduced microglia-astrocyte interaction"},
      {"measurement": "effect on NMO-IgG upregulation of astrocyte complement C3", "setting": "astrocyte complement C3", "value": "not altered"}
    ]},
    {"molecule": "C3a: signaling molecule produced by cleavage of complement component C3", "values": [
      {"measurement": "time to induce microglial process chemotaxis", "setting": "microglia [3]", "value": "≤ 30", "unit": "min"}
    ]}
  ]
}
